Measurements taken from paper PMC8099175, “SARS-CoV-2 M^pro inhibitors with antiviral activity in a transgenic mouse model” (Science (New York, N.y.), 2021).
Where two headings read alike, the source gives them in different places.

What was measured:
[1] = test system: SARS-CoV-2–infected Vero E6 cells; assay: cell protection assay (CCK8); type: cell-based; conditions: for EC50: Vero E6 cells, MOI 0.1, 3 dpi, CCK8
[2] = test system: SARS-CoV-2 in HPAEpiC cells; assay: RT-qPCR virus replication assay in HPAEpiC cells; type: cell-based; conditions: for EC90: Severe acute respiratory syndrome coronavirus 2
[3] = acute toxicity experiment in rats; type: in vivo; conditions: i.v. 40 mg/kg, i.p. 250 mg/kg, or p.o. 500 mg/kg
[4] = repeated dose toxicity study in rats; type: in vivo; conditions: i.v. 6 and 18 mg kg^–1 day^–1, i.p. 100 and 200 mg kg^–1 day^–1, or p.o. 100 and 200 mg/kg twice daily, 7 consecutive days
[5] = test system: SARS-CoV-2; assay: hACE2 transgenic mouse model of SARS-CoV-2 infection; type: in vivo, hACE2 transgenic mice; conditions: for viral RNA loads in the lung tissues: 2 × 10^6 TCID50, 50 mg/kg, 3 and 5 dpi; for viral loads in the lung tissues: 5 dpi; for lung histopathology / neutrophils and macrophages in the lungs vs control mice: 5 × 10^6 TCID50, 3 dpi; for expression levels of IFN-β and CXCL10 in the lungs: 5 × 10^6 TCID50, lung tissue homogenate; for lung viral loads and lung lesions: oral or intraperitoneal treatment, summary statement; for abnormal behaviors or body weight loss: pilot study, 2 × 10^6 TCID50, MI-09 50 mg/kg p.o. bid or i.p. qd, MI-30 50 mg/kg i.p. qd, 6-day period
[6] = PK experiments in Sprague-Dawley rats; conditions: rat
From the text: To identify which of the six compounds is suitable for in vivo antiviral studies, we conducted PK experiments in Sprague-Dawley rats.

[7] = Severe acute respiratory syndrome coronavirus 2, Vero C1008
[8] = Severe acute respiratory syndrome coronavirus 2, read-out: EC50, SARS-CoV-2 virus replication (RT-qPCR)
[9] = 2 × 10^6 TCID50, 50 mg/kg (MI-09 p.o. bid or i.p. qd; MI-30 i.p. qd), 1 dpi
[10] = 5 × 10^6 TCID50, 100 mg/kg i.p. or p.o., 1 dpi
[11] = 5 × 10^6 TCID50, 100 mg/kg i.p. or p.o., 3 dpi
[12] = 5 × 10^6 TCID50, 100 mg/kg i.p. or p.o.
[13] = Sprague-Dawley, in vivo, ip, 20 mg/kg
[14] = Sprague-Dawley, in vivo, iv, 10 mg/kg
[15] = Sprague-Dawley, in vivo, po, 20 mg/kg

Row | Structure (SMILES) | EC90 [1, 7] [nM] | EC50 [1, 7] [nM] | EC90 [2] [nM] | EC50 [2, 8] [nM] | mortality, acute toxicity [3] | toxicity, repeated dose [4] | mean viral RNA loads in the lung tissues vs control [5, 9] | viral RNA loads in the lung tissues [5] | mean viral RNA loads in the lung tissues vs control [5, 10] | mean viral RNA loads in the lung tissues vs control [5, 11] | viral loads in the lung tissues [5, 12] | lung histopathology [5] | neutrophils and macrophages in the lungs vs control mice [5] | expression levels of IFN-β and CXCL10 in the lungs ([5]; 3 dpi) | lung viral loads and lung lesions [5] | abnormal behaviors or body weight loss [5] | AUC [6, 13] [ng·h/mL] | AUC [6, 14] [ng·h/mL] | AUC [6, 15] [ng·h/mL] | bioavailability [6, 15] [%] | also measured
1 | CC(C)C[C@H](NC(=O)OCc1ccccc1)C(=O)N[C@@H](CC1CCNC1=O)C(O)S(=O)(=O)O (some centres unmarked) [GC376, reference compound] |  |  |  |  |  |  |  |  |  |  |  |  |  |  |  |  |  |  |  |  | EC50 [1]: 1460 nM; EC50 ([2]; HPAEpiC cells, MOI 0.01, 2 dpi, viral RNA copies in supernatant, read-out: EC50, SARS-CoV-2 virus replication (RT-qPCR)): 153 nM
2 | CC1(C)[C@@H]2[C@@H](C(=O)N[C@H](C=O)C[C@@H]3CCNC3=O)N(C(=O)COc3ccc(OC(F)(F)F)cc3)C[C@@H]21 [MI-09] | 3620 | 860 | 47.9 | 1.2 | no rats died | did not result in noticeable toxicity | significantly (P < 0.05, Student’s t test) lower | almost undetectable | slightly lower | significantly lower | undetectable | slight alveolar septal thickening and mild inflammatory cell infiltration | fewer | reduced | significantly reduced | no abnormal behaviors or body weight loss were observed | 11600 | 7430 | 1660 | 11.2 | 
3 | O=C[C@H](C[C@@H]1CCNC1=O)NC(=O)[C@@H]1[C@H]2CCC[C@H]2CN1C(=O)COc1ccc(Cl)cc1Cl [MI-30] | 2120 | 540 | 58.8 | 1.1 | no rats died | did not result in noticeable toxicity | significantly (P < 0.05, Student’s t test) lower | almost undetectable | slightly lower | significantly lower | undetectable | slight alveolar septal thickening and mild inflammatory cell infiltration | fewer | reduced | significantly reduced | no abnormal behaviors or body weight loss were observed | 14900 | 9770 | 2840 | 14.6 | half-life [6, 13]: 3.88 h; clearance rate (CL) ([6]; i.p. administration): 17.10 ml min^–1 kg^–1
